Experimental data reported in BindingDB's records for patent US20240279215 (Cytokinetics, Incorporated, 2024).

molecular target: Nicotinamide phosphoribosyltransferase (Homo sapiens, UniProt P43490); assay: NMN Fluorescence Biochemical Assay
Method: Compounds described herein were assayed for their ability to stimulate the synthesis of nicotinamide mononucleotide (NMN) by the enzyme NAMPT. The human recombinant enzyme assay measures the activation of the enzyme activity by compounds using recombinant enzyme and substrates in a buffered cell-free system. The assay conditions closely mimic cellular environments. Dose responses were measured using an assay to detect the formation of nicotinamide mono-nucleotide. All experiments were performed in the 384-well format. Generally, 0.5 μL of DMSO containing varying concentrations of the test compound was mixed with 10 μL of the enzyme reagent solution. Enzyme reactions were initiated with the addition of […] containing the substrates. The final assay conditions were as follows: 6 nM human NAMPT, 2.5 mM ATP, 20 μM PRPP and 150 μM nicotinamide in 50 mM HEPES, pH 7.2, 1 mM DTT, 1 mM CHAPS 50 mM NaCl, 100 mM MgCl2. Following an incubation of 60 min at ambient temperature, 10 μL of 20% acetophenone in DMSO was added, followed by 10 μL of 2 M KOH and 40 μL of formic acid. The plates were read for fluorescence (Excitation/Emission=355 nm/460 nm) using an EnVision plate reader after 40 mins of incubation at ambient temperature.

Sequence of Nicotinamide phosphoribosyltransferase (P43490 whole entry): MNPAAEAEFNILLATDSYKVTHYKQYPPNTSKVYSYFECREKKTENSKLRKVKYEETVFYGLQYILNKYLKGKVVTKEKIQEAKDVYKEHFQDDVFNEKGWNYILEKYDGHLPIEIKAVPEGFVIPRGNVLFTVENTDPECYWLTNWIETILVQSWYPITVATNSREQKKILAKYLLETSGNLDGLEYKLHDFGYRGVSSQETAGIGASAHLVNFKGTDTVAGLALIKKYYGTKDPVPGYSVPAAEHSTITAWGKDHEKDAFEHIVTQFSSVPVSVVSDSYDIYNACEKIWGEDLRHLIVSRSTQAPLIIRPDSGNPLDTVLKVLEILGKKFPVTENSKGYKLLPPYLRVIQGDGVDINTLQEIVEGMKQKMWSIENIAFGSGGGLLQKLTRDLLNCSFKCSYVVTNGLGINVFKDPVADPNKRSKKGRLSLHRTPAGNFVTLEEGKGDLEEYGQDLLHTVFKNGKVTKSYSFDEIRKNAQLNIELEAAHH

| EC50 | SMILES |
| --- | --- |
| 7.94 µM | CN(Cc1ccccc1)S(=O)(=O)c1ccc(NC(=O)OCc2ccc(Cl)cc2)cc1 [US20240279215, Compound 335] |
| 15.8 µM | O=C(Nc1ccc(CN2C(=O)CC[C@@H]2c2cccnc2)cc1)OCc1ccc(Cl)cc1 [US20240279215, Compound 249] |
| 11.5 µM | CN(C1CCOC1)S(=O)(=O)c1ccc(NC(=O)OCc2ccc(Cl)cc2)cc1 (centres undefined) [US20240279215, Compound 342] |
| 5.38 µM | O=C(Nc1ccc(CC2CCN(CC(F)F)CC2)cc1)OCc1ccncc1 [US20240279215, Compound 52] |
